Results as given in patent US20110100079A1, “METHOD FOR IMPARTING STRESS TOLERANCE TO PLANT” (priority 2007, published 2011).

Experiments:
Format in all cases: in vivo
“Momotaro” tomato [1] = test: Example 3 drying stress tolerance imparting test (tomato); conditions: 3 weeks
Experimental: Other cultivation conditions were as with the conditions of the drying stress test. Drying stress conditions: soil pF value: 2.3, 2.5, or 2.9, cultivation temperature: 23° C., relative humidity: 50%, illuminance: 5000 Lux (fluorescent light), light/dark cycle: 16 hours/8 hours (2) Cultivation period: 3 weeks (3) Soil: Kureha gardening soil manufactured by Kureha Corporation (fertilizer components: N:P:K=0.4:1.9:0.6 g/kg soil) (4) Plant preparation: A 50-cell tray was filled with Kureha gardening soil manufactured by Kureha Corporation (fertilizer components: N:P:K=0.4:1.9:0.6 g/kg soil), and seeds of a “Momotaro” tomato were sowed, thinly covered with Kureha gardening soil, and sufficiently watered to allow the seeds to sprout. When the leaves in the 2-leaf stage fully unfolded, the soil on the tomato roots was carefully washed away with running water, and a test was performed. (5) The chemicals used and the amount of a treatment solution applied were as in Example 1. (6) Amount of treatment solution applied: 10 ml/specimen for leaf spraying, 50 ml/specimen for fertigation Method of Drying Stress Tolerance Imparting Test Five tomato specimens as prepared above were planted in a 60-cm planter placed on a plant culture rack in an air-conditioned room. […] From immediately after planting the tomatoes, a treatment solution of Table 1 was sprayed onto the leaves or applied to the underground portions once a week. […] Five specimens (per planter) were prepared for each of the test plot and the control plots, plant bodies were collected 3 weeks after the beginning of the test such that the roots were not cut, the soil was washed away with running water, the fresh plant body-weights were measured, and a plant stress level and an extent of imparting plant stress tolerance were calculated according to Formula (ii) and (iii) above using the average of the weights.

“Momotaro” tomato [2] = test: Standard test: standard extent of imparting plant salt stress tolerance; conditions: 100 ppm sprayed onto leaves 10 ml/specimen, NaCl 3510 ppm in tap water, fresh weight after 2 weeks vs salt-stressed untreated control plot 1
Experimental: Standard Test (I) Plant Preparation A 50-cell tray is filled with potting soil (fertilizer components: N:P:K=0.4:1.9:0.6 (g)/kg potting soil); and seeds of a “Momotaro” tomato (Takii Co., Ltd.) are sowed, thinly covered with potting soil, and sufficiently irrigated to allow the seeds to sprout. When the leaves in the 2-leaf stage are fully unfolded, the soil on the tomato roots is washed away with running water, and a test is performed. For the potting soil, Kureha gardening soil manufactured by Kureha Corporation may be used. (II) Test Condition Setting The environmental conditions are controlled such that the temperature is 23° C., the relative humidity is 50%, the illuminance is 5000 Lux, and the daily light-dark cycle includes a 16-hour light period and an 8-hour dark period. Such environmental conditions can be obtained by, for example, controlling the temperature in a room or a climate chamber where the temperature and the relative humidity can be controlled, and controlling illuminance by a fluorescent light or the like. […] (III) Treatment with Plant Stress Tolerance Imparting Composition […] A known surfactant or a like material that barely affects the plant may be used in the preparation of an aqueous dispersion. Test plot: An aqueous solution or an aqueous dispersion of a test compound (sugar derivative-type surfactant) (concentration: 100 ppm) is sprayed onto the leaves in an amount of 10 ml per tomato specimen. […] NaCl is added to a solution culture medium (creating a salt stress), but no test compound (plant stress tolerance imparting composition) is given to the tomato. Control plot 2: No NaCl is added to a solution culture medium (creating no salt stress), and no test compound (plant stress tolerance imparting composition) is given to the tomato. (IV) Calculation of Standard Extent of Imparting Plant Salt Stress Tolerance (%) […] The plant stress level (standard plant salt stress level) attained in the above-described standard test is about 130%. In this regard, the standard plant salt stress level can be calculated according to Formula (ii)′ below.

[3] = system: Potato Variety: Toyoshiro; test: Example 5 drying stress tolerance imparting test (potato variety Toyoshiro); conditions: 3 weeks
Experimental: Other cultivation conditions were the same as the conditions of the drying stress test. Drying stress conditions: soil pF value: 2.3, 2.5, or 2.9, cultivation temperature: 23° C., relative humidity: 50%, illuminance: 5000 Lux (fluorescent light), light/dark cycle: 16 hours/8 hours (2) Cultivation Period: 3 weeks (3) Soil: Kureha gardening soil manufactured by Kureha Corporation (fertilizer components: N:P:K=0.4:1.9:0.6 g/kg soil) (4) The chemicals used and the amount of a treatment solution applied were the same as in Example 3. Method of Drying Stress Tolerance Imparting Test A planter (60 cm) was filled with Kureha gardening soil manufactured by Kureha Corporation (fertilizer components: N:P:K=0.4:1.9:0.6 g/kg soil) in a glass greenhouse, tubers of a “Thyoshiro” potato were cut in half: and 5 pieces thereof were planted in the planter, thinly covered with Kureha gardening soil, and sufficiently watered to allow the tubers to sprout. When the leaves in the 3-leaf stage fully unfolded, the Solarium tuberosu was relocated on a plant culture rack in an air-conditioned room, and a test was initiated. […] From immediately after the beginning of the test, a treatment solution of Table 1 was sprayed onto the leaves or applied to the underground portions once a week. […] Five specimens (per planter) were prepared for each of the test plot and the control plots, plant bodies were collected 3 weeks after the beginning of the test such that the roots were not cut, the soil was washed away with running water, the fresh plant body weights were measured, and a plant stress level and an extent of imparting plant stress tolerance were calculated according to Formula (ii) and (iii) above using the average of the weights.

“Momotaro” tomato [4] = test: Example 4 salt stress tolerance imparting test (tomato, tap water + NaCl); conditions: tap water + NaCl 3510 ppm, 2 weeks
Source text: NaCl concentration 3510 ppm (water potential by NaCl: […]) (4) Cultivation period: two weeks (5) Plant preparation: A 50-cell tray was filled with Kureha gardening soil manufactured by Kureha Corporation (fertilizer components: N:P:K=0.4:1.9:0.6 g/kg soil), and seeds of a “Momotaro” tomato were sowed, thinly covered with Kureha gardening soil, and sufficiently irrigated to allow the seeds to sprout. When the leaves in the 2-leaf stage fully unfolded, the soil on the tomato roots was carefully washed away with running water, and a test was performed. (6) The chemicals used and the concentration of a treatment solution were as in Example 1 (7) Amount of application: 10 ml/specimen for leaf spraying, 50 ml/specimen for fertigation Method of Salt Stress Tolerance Imparting Test […]

[5] = pF 2.3, leaf, 1 ppm once a week
[6] = pF 2.3, leaf, 10 ppm once a week
[7] = pF 2.3, leaf, 100 ppm once a week
[8] = pF 2.3, leaf, 1000 ppm once a week
[9] = pF 2.3, underground portion, 100 ppm once a week
[10] = pF 2.5, leaf, 100 ppm once a week
[11] = pF 2.5, underground portion, 100 ppm once a week
[12] = pF 2.9, leaf, 100 ppm once a week
[13] = pF 2.9, underground portion, 100 ppm once a week
[14] = pF 2.3, leaf, 200 ppm once a week

| Molecule | Extent of imparting plant stress tolerance (“Momotaro” tomato [1]; [7]) | Extent of imparting plant stress tolerance (“Momotaro” tomato [1]; [10]) | Extent of imparting plant stress tolerance (“Momotaro” tomato [1]; [12]) | Standard extent of imparting plant salt stress tolerance (“Momotaro” tomato [2]) | Extent of imparting plant stress tolerance [3, 7] | Extent of imparting plant stress tolerance [3, 10] | Extent of imparting plant stress tolerance [3, 12] | Extent of imparting plant stress tolerance (“Momotaro” tomato [4]; leaf, 100 ppm) | also measured |
| --- | --- | --- | --- | --- | --- | --- | --- | --- | --- |
| POE (20) sorbitan monooleic acid ester [Product of present invention 1] | 113% | 117% | 124% | 113% | 113% | 115% | 124% | 113% | Extent of imparting plant stress tolerance (“Momotaro” tomato [1]; [5]): 112%; Extent of imparting plant stress tolerance (“Momotaro” tomato [1]; [6]): 113%; Extent of imparting plant stress tolerance (“Momotaro” tomato [1]; [8]): 117%; Extent of imparting plant stress tolerance (“Momotaro” tomato [1]; [9]): 129%; Extent of imparting plant stress tolerance (“Momotaro” tomato [1]; [11]): 128%; Extent of imparting plant stress tolerance (“Momotaro” tomato [1]; [13]): 135%; Extent of imparting plant stress tolerance [3, 5]: 112%; Extent of imparting plant stress tolerance [3, 6]: 113%; Extent of imparting plant stress tolerance [3, 8]: 119%; Extent of imparting plant stress tolerance [3, 9]: 134%; Extent of imparting plant stress tolerance [3, 11]: 127%; Extent of imparting plant stress tolerance [3, 13]: 134%; Extent of imparting plant stress tolerance (“Momotaro” tomato [4]; leaf, 1 ppm): 112%; Extent of imparting plant stress tolerance (“Momotaro” tomato [4]; leaf, 10 ppm): 113%; Extent of imparting plant stress tolerance (“Momotaro” tomato [4]; leaf, 1000 ppm): 119%; Extent of imparting plant stress tolerance (“Momotaro” tomato [4]; underground portion, 100 ppm): 130% |
| Sucrose fatty acid ester (C18, HLB = 11) [Product of present invention 19] | 115% | – | – | 114% | 117% | – | – | 114% | – |
| Sucrose fatty acid ester (C18:1, HLB = 15) [Product of present invention 22] | 117% | – | – | 118% | 119% | – | – | 118% | Extent of imparting plant stress tolerance (“Momotaro” tomato [1]; [14]): 113%; Extent of imparting plant stress tolerance [3, 14]: 114%; Extent of imparting plant stress tolerance (“Momotaro” tomato [4]; leaf, 200 ppm): 111% |
| O=C(O)[C@@H]1CCCN1 [Comparative product 2, Proline, reference compound] | 103% | 102% | 103% | 102% | 102% | 103% | 103% | 103% | – |
